Experimental data: ChEMBL document CHEMBL4732160, “Design and synthesis of 7-O-1,2,3-triazole hesperetin derivatives to relieve inflammation of acute liver injury in mice” (Eur J Med Chem, 2021)
pIC50: −log10 of the molar value. Calls of active or inactive are those of the source. The calls are words filed in the database; no cut-off is given here.

Experiments:
[1] = test system: RAW264.7; experiment: Antiinflammatory activity in mouse RAW264.7 cells assessed as inhibition of LPS-induced NO production at 10 uM preincubated for 2 hrs followed by LPS stimulation and measured after 24 hrs by Griess method relative to control; type: functional; settings: time 26 hrs
[2] = test system: RAW264.7; experiment: Antiinflammatory activity in mouse RAW264.7 cells assessed as inhibition of LPS-induced NO production preincubated for 2 hrs followed by LPS stimulation and measured after 24 hrs by Griess method; type: functional, cell-based
[3] = Cytotoxicity against mouse RAW264.7 cells assessed as cell viability at 40 uM measured after 24 hrs by MTT assay relative to control; type: cell-based
[4] = test system: RAW264.7; experiment: Antiinflammatory activity in mouse RAW264.7 cells assessed as inhibition of LPS-induced TNFalpha production at 10 uM preincubated for 1 hr followed by LPS stimulation and measured after 22 hrs by ELISA; type: functional, cell-based; settings: time 23.0 hrs
[5] = test system: RAW264.7; experiment: Antiinflammatory activity in mouse RAW264.7 cells assessed as inhibition of LPS-induced IL1beta production at 10 uM preincubated for 1 hr followed by LPS stimulation and measured after 22 hrs by ELISA; type: functional, cell-based; settings: time 23.0 hrs
[6] = test system: RAW264.7; experiment: Antiinflammatory activity in mouse RAW264.7 cells assessed as inhibition of LPS-induced IL6 production at 10 uM preincubated for 1 hr followed by LPS stimulation and measured after 22 hrs by ELISA; type: functional, cell-based; settings: time 23.0 hrs

pIC50 [2]	Compound	inhibition at 10 µM [1] [%]	viability at 24 h, 40 µM [3] [%]	inhibition [4]	inhibition [5]	inhibition [6]
4.82	CCn1cc(COc2cc(O)c3c(c2)O[C@H](c2ccc(OC)c(O)c2)CC3=O)nn1	41.4	106	Active	Active	Active
5.01	CCCn1cc(COc2cc(O)c3c(c2)O[C@H](c2ccc(OC)c(O)c2)CC3=O)nn1	56.4	114	Active	Active	Active
4.76	COc1ccc([C@@H]2CC(=O)c3c(O)cc(OCc4cn(Cc5cccc(C)c5)nn4)cc3O2)cc1O	31	113	Active	Active	Active
4.88	COc1ccc([C@@H]2CC(=O)c3c(O)cc(OCc4cn(CC(=O)c5ccccc5Cl)nn4)cc3O2)cc1O	34.1	99	Active	Active	Active
4.82	COc1ccc([C@@H]2CC(=O)c3c(O)cc(OCc4cn(C5CCC5)nn4)cc3O2)cc1O	44.2	111	Active	Active	Active
5.20	COc1ccc([C@@H]2C/C(=N\O)c3c(O)cc(OCc4cn(CC5CC5)nn4)cc3O2)cc1O	67	86	Active	Active	Active
4.96	COc1ccc([C@@H]2CC(=O)c3c(O)cc(OCc4cn(Cc5ccccc5)nn4)cc3O2)cc1O	49.8	98	Active	Active	Active
5.14	COc1ccc([C@@H]2CC(=O)c3c(O)cc(OCc4cn(Cc5ccccc5F)nn4)cc3O2)cc1O	63.3	74	Active	Active	Active
4.81	COc1ccc([C@@H]2CC(=O)c3c(O)cc(OCc4cn(C5CCCCC5)nn4)cc3O2)cc1O	42.4	124	Active	Active	Active
5.05	CCCCn1cc(COc2cc(O)c3c(c2)O[C@H](c2ccc(OC)c(O)c2)C/C3=N\O)nn1	56.9	62	Active	Active	Active
4.72	C#CCOc1cc(O)c2c(c1)O[C@H](c1ccc(OC)c(O)c1)C/C2=N\O	38.7				
4.86	C=CCn1cc(COc2cc(O)c3c(c2)O[C@H](c2ccc(OC)c(O)c2)CC3=O)nn1	50.1	118	Active	Active	Active
4.77	COc1ccc([C@@H]2CC(=O)c3c(O)cc(OCc4cn(Cc5ccc(C)cc5)nn4)cc3O2)cc1O	29.4	110	Active	Active	Active
5.21	COc1ccc([C@@H]2C/C(=N\O)c3c(O)cc(OCc4cn(Cc5ccccc5)nn4)cc3O2)cc1O	63.6	93	Active	Active	Active
4.72	COc1ccc([C@@H]2CC(=O)c3c(O)cc(OCc4cn(CC(=O)c5ccccc5OC)nn4)cc3O2)cc1O	22.8	132	Active	Active	Active
5.24	COc1ccc([C@@H]2C/C(=N\O)c3c(O)cc(OCc4cn(Cc5ccccc5F)nn4)cc3O2)cc1O	65.4	82	Active	Active	Active
4.74	COc1ccc([C@@H]2CC(=O)c3c(O)cc(OCc4cn(Cc5cccc(Cl)c5)nn4)cc3O2)cc1O	28	120	Active	Active	Active
4.74	COc1ccc([C@@H]2C/C(=N\O)c3c(O)cc(OCc4cn(Cc5ccccc5C)nn4)cc3O2)cc1O	22.5	83	Active	Active	Active

pIC50 [2]	Compound	inhibition at 10 µM [1] [%]	viability at 24 h, 40 µM [3] [%]	inhibition [4]	inhibition [5]	inhibition [6]
4.87	COc1ccc([C@@H]2C/C(=N\O)c3c(O)cc(OCc4cn(Cc5ccccc5Cl)nn4)cc3O2)cc1O	33	86	Active	Active	Active
5.21	COc1ccc([C@@H]2CC(=O)c3c(O)cc(OCc4cn(Cc5ccccc5Cl)nn4)cc3O2)cc1O	63.1	83	Active	Active	Active
4.90	COc1ccc([C@@H]2CC(=O)c3c(O)cc(OCc4cn(Cc5ccccc5C(F)(F)F)nn4)cc3O2)cc1O	48	135	Active	Active	Active
4.75	COc1ccc([C@@H]2CC(=O)c3c(O)cc(OCc4cn(Cc5ccc(C(F)(F)F)cc5)nn4)cc3O2)cc1O	36.4	66	Active	Active	Active
	Cc1ccc(-c2cc(C(F)(F)F)nn2-c2ccc(S(N)(=O)=O)cc2)cc1 [CELECOXIB]		83	Active	Active	Active
4.77	COc1ccc([C@@H]2CC(=O)c3c(O)cc(OCc4cn(CC(=O)c5ccccc5)nn4)cc3O2)cc1O	32.1	112	Active	Active	Active
	COc1ccc2c(c1)c(CC(=O)O)c(C)n2C(=O)c1ccc(Cl)cc1 [INDOMETHACIN]		87	Active	Active	Active
4.72	COc1ccc([C@@H]2CC(=O)c3c(O)cc(OCc4cn(CC(=O)c5ccccc5F)nn4)cc3O2)cc1O	34.5	113	Active	Active	Active
4.84	COc1ccc([C@@H]2CC(=O)c3c(O)cc(OCc4cn(Cc5ccccc5C#N)nn4)cc3O2)cc1O	43.6	114	Active	Active	Active
4.88	COc1ccc([C@@H]2CC(=O)c3c(O)cc(OCc4cn(Cc5ccccc5C)nn4)cc3O2)cc1O	45.7	100	Active	Active	Active
4.75	COc1ccc([C@@H]2CC(=O)c3c(O)cc(OCc4cn(Cc5ccc(Cl)cc5)nn4)cc3O2)cc1O	29	94	Active	Active	Active
4.75	COc1ccc([C@@H]2CC(=O)c3c(O)cc(OCc4cn(CCO)nn4)cc3O2)cc1O	24.7	112	Active	Active	Active
5.16	COc1ccc([C@@H]2C/C(=N\O)c3c(O)cc(OCc4cn(C5CCCC5)nn4)cc3O2)cc1O	63.7	112	Active	Active	Active
4.68	C#CCOc1cc(O)c2c(c1)O[C@H](c1ccc(OC)c(O)c1)CC2=O	35.2				
4.82	COc1ccc([C@@H]2CC(=O)c3c(O)cc(OCc4cn(Cc5ccc(F)cc5)nn4)cc3O2)cc1O	41.4	101	Active	Active	Active
4.78	COc1ccc([C@@H]2CC(=O)c3c(O)cc(OCc4cn(CCCO)nn4)cc3O2)cc1O	32.8	121	Active	Active	Active
4.98	COc1ccc([C@@H]2CC(=O)c3c(O)cc(OCc4cn(C5CCCC5)nn4)cc3O2)cc1O	53.8	110	Active	Active	Active
